In US7160903B2, “Sulfonylaminocarboxylic acids” (Sanofi-Aventis Deutschland GmbH, priority 1997, dated 2007):

Experiments:
stromelysin (MMP-3) = molecular target: T1, stromelysin (MMP-3) (Homo sapiens, UniProt P08254); test: Enzymatic activity of the catalytic domain of human stromelysin (fluorogenic substrate); format: biochemical; conditions: pH=6.5, 15 min preincubation, fluorescence 328 nm (ex)/393 nm (em)
T1 construct: enzymatic activity of the catalytic domains of human stromelysin and of neutrophil collagenase; made in house
T1 sequence (P08254 100-272 limits assumed): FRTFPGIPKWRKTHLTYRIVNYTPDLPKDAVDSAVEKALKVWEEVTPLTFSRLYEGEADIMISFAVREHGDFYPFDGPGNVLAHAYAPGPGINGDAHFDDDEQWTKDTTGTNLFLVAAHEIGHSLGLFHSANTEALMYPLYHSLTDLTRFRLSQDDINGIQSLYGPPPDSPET
Description: (§1) Preparation and determination of the enzymatic activity of the catalytic domains of human stromelysin and of neutrophil collagenase:
(§2) The enzymes stromelysin (MMP-3) and neutrophil collagenase (MMP-8) were prepared according to Ye et al. (Biochemistry; 31 (1992) pages 11231–11235). To measure the enzyme activity or the enzyme inhibitor action, 70 μl of buffer solution and 10 μl of enzyme solution are incubated for 15 min with 10 μl of a 10% strength (v/v) aqueous dimethyl sulfoxide solution, which optionally contains the enzyme inhibitor. After addition of 10 μl of a 10% strength (v/v) aqueous dimethyl sulfoxide solution which contains 1 mmol/L of the substrate, the enzyme reaction is monitored by fluorescence spectroscopy (328 nm (ex)/393 nm(em)). The enzyme activity is shown as the extinction increase/min. The IC50 values listed in Table 2 are determined as those inhibitor concentrations which in each case led to a 50% inhibition of the enzyme.
(§3) The buffer solution contains 0.05% Brij (Sigma, Deisenhofen, Germany) and also 0.1 mol/L Tris/HCl, 0.1 mol/L NaCl, 0.01 mol/L CaCl2 and 0.1 mol/L piperazine-N,N′-bis[2-ethanesulfonic acid] (pH=6.5). The enzyme solution contains 5 μg/ml of one of the enzyme domains prepared according to Ye et al. The substrate solution contains 1 mmol/L of the fluorogenic substrate (7-methoxycoumarin-4-yl)acetyl-Pro-Leu-Gly-Leu-3-(2′,4′-dinitrophenyl)-L-2,3-diaminopropionyl-Ala-Arg-NH2 (Bachem, Heidelberg, Germany).

[1] = molecular target: T2, neutrophil collagenase (MMP-8) (Homo sapiens, UniProt P22894); test: Enzymatic activity of the catalytic domain of neutrophil collagenase (fluorogenic substrate); format: biochemical; conditions: pH=6.5, 15 min preincubation, fluorescence 328 nm (ex)/393 nm (em), read-out: Neutr. collagenase IC50
T2 construct: enzymatic activity of the catalytic domains of human stromelysin and of neutrophil collagenase; made in house
T2 sequence (P22894 100-262 limits assumed): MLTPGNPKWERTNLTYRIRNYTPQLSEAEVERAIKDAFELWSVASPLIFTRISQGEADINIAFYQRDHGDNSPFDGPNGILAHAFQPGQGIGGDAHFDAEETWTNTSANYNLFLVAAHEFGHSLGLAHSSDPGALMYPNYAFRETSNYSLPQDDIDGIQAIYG
Description: as §1, §2, §3

Row | Structure (SMILES) | melting point | IC50 (stromelysin (MMP-3)) [nM] | IC50 [1] [nM]
1 | O=C(CC[C@H](NS(=O)(=O)c1ccc(-c2ccccc2)cc1)C(=O)O)Nc1ccc(F)c(Cl)c1 [Example 96] | > 245 °C (dec.) | 600 | 20
2 | O=C(O)[C@H](CCc1nc2ccccc2[nH]1)NS(=O)(=O)c1ccc(-c2ccccc2)cc1 [Example 93] | > 250 °C (dec.) | 200 | 20
3 | O=C(CCC(NS(=O)(=O)c1ccc(-c2ccc(N3CCCC3)cc2)cc1)C(=O)O)Nc1ccccc1 (racemic) [Example 76] | 234 to 236 °C (dec.) | 5 | 3
4 | O=C(O)[C@H](CO)NS(=O)(=O)c1ccc(Oc2ccccc2)cc1 [Example 8] | 202 to 203 °C | 300 | 10
5 | O=C(O)CCCC(NS(=O)(=O)c1ccc(-c2ccccc2)cc1)C(=O)O (racemic) [Example 82] | 171.5 to 172 °C | 100 | 10
6 | O=C(CC[C@H](NS(=O)(=O)c1ccc(-c2ccccc2)cc1)C(=O)O)Nc1ccncc1 [Example 97] | > 290 °C (dec.) | 1000 | 30
7 | CCN(C(=O)CC[C@H](NS(=O)(=O)c1ccc(-c2ccccc2)cc1)C(=O)O)c1ccccc1 [Example 98] | > 155 °C (dec.) | 400 | 30
8 | O=C(O)[C@@H](Cc1c[nH]c2ccccc12)NS(=O)(=O)c1ccc(-n2nccn2)cc1 [Example 68] | 131 to 134 °C | 400 | 100
9 | CC(=O)Nc1ccc(NC(=O)CC[C@H](NS(=O)(=O)c2ccc(-c3ccccc3)cc2)C(=O)O)cc1 [Example 99] | > 230 °C (dec.) | 700 | 50
10 | N#Cc1ccc(NC(=O)CC[C@H](NS(=O)(=O)c2ccc(-c3ccccc3)cc2)C(=O)O)cc1 [Example 86] | 220 °C | 300 | 10
11 | O=C(O)[C@@H](Cc1ccccc1)NS(=O)(=O)c1ccc(-c2ccc(C(F)(F)F)cc2)cc1 [Example 20] | 159 to 162 °C | 400 | 20
12 | O=C(CCC(NS(=O)(=O)c1ccc(-c2ccc(Cl)cc2)cc1)C(=O)O)Nc1ccccc1 (racemic) [Example 69] | 238 to 239 °C | 10 | 4
13 | O=C(CC[C@H](NS(=O)(=O)c1ccc(-c2ccc(N3CCCC3)cc2)cc1)C(=O)O)Nc1ccc(F)cc1 [Example 90] | > 245 °C (dec.) | 10 | 2
14 | CSCC[C@@H](NS(=O)(=O)c1ccc(-c2ccc(N(C)C)cc2)cc1)C(=O)O [Example 11] | 180 to 186 °C | 90 | 3
15 | O=C(O)[C@@H](NS(=O)(=O)c1ccc(Oc2ccccc2)cc1)[C@@H](O)c1ccc2c(c1)OCO2 (racemic) [Example 35] | 176 °C | 100 | 10
16 | CSCC[C@@H](NS(=O)(=O)c1ccc(-n2nccn2)cc1)C(=O)O [Example 67] | 155.5 to 156.5 °C | 1000 | 200
17 | NC(=O)CC[C@H](NC(=O)CC[C@H](NS(=O)(=O)c1ccc(-c2ccccc2)cc1)C(=O)O)C(=O)O [Example 95] | > 110 °C (dec.) | 300 | 20
18 | COC(=O)c1ccc(NC(=O)CC[C@H](NS(=O)(=O)c2ccc(-c3ccccc3)cc2)C(=O)O)cc1 [Example 84] | 245 to 245.5 °C | 5000 | 2
19 | O=C(CC[C@H](NS(=O)(=O)c1ccc(-c2ccccc2)cc1)C(=O)O)N[C@@H](Cc1ccccc1)C(=O)O [Example 92] | 123.5 to 124.5 °C | 30 | 4
20 | O=C(O)CNS(=O)(=O)c1ccc(Oc2ccc(Cl)cc2)cc1 [Example 3] | 162 to 164 °C | 20000 | 200
